Results published in patent publication US11719711B2, “Compositions and methods for detecting and/or treating inflammation” (THE GENERAL HOSPITAL CORPORATION, priority 2013, dated 2023).

Legend:
[1] = tested on: pro-inflammatory chemokine mRNA expression in MDCK-C11 cells; assay: Quantitative PCR of pro-inflammatory mediators in MDCK-C11 cells; assay type: cell-based, Canine
Method: Total RNA was isolated from cells using RNeasy micro kit (Qiagen, Valencia, Calif.) and from tissues using RNeasy Mini kit, as described previously (36). DNase I digestion was performed using RNase-Free DNase Set (Qiagen) according to the manufacturer's instructions. All reverse transcription (RT) and PCR reagents were from Applied Biosystems (Foster City, Calif.). Reverse-transcription was performed for 1 h at 42° C. in a final volume of 50 μl with 1× buffer II, 5 mM MgCl2, 1.0 mM each dNTP, 1 U/μl RNase inhibitor, 2.5 μM random hexamers, and 2.5 U/μl MuLV reverse transcriptase. PCR was performed on RT products. For end point PCRs, reaction mixtures consisted of a 20 μl final volume containing 2 μl template, 1.25 units AmpliTaq Gold DNA polymerase, lx buffer II, 1.5 mM MgCl2, 1.0 mM each dNTP, and 0.5 μM forward and reverse oligonucleotide primers. The following parameters were used for PCR: 8 min at 95° C. to activate the polymerase, 35 cycles of melting for 30 s at 95° C., annealing for 30 s at 60° C., extension for 30 s at 72° C., and a final extension for 10 min at 72° C. The amplification products were visualized by electrophoresis on a 1-2% agarose gel containing GelStar stain (Lonza, Rockland, Me.).
Real Time PCR was performed with a 7300 Real Time PCR system (Applied Biosystems). Amplification products were detected using the Power SYBR Green PCR master mix (Applied Biosystems), according to the manufacturer's instructions. Standard-curve relative quantifications were performed and relative values of each sample were normalized to GAPDH values. Samples were analyzed in triplicates for each experiment.
MDCK-C11 cells were cultured at 37° C. in a 5% CO2-95% O2 mix in DMEM (Invitrogen) supplemented with 2 mM glutamine, 10% fetal bovine serum (Invitrogen), penicillin (100 U/ml), and streptomycin (100 μg/ml) (Invitrogen). Prior to any treatment, cells were serum starved for 24 hours. For cell surface biotinylation assays, cells were either grown to confluence on plastic dishes or on filters. Biotinylation was performed as described previously (75). Briefly cells were incubated with 1 mg/ml of biotin (Thermo Scientific, Pittsburgh, Pa.) in PBS pH 8 on ice for 1 h. The excess biotin was quenched with 100 mM glycine and cells were either further processed for immunostaining or lysed in lysis buffer [150 mM NaCl, 5 mM EDTA, 50 mM Tris/HEPES, pH 7.5; 1% (vol/vol) Triton X-100] containing protease and phosphatase inhibitors (Complete Mini EDTA free, PhosSTOP, Roche Diagnostics, Laval, Canada), for 20 min at 4° C. Total protein expression was determined in 2-5 μg of proteins from the total cell extracts. 50-100 μg of cell lysate proteins were incubated with neutravidin beads (Thermo Scientific) overnight at 4° C. […]

P2Y14 [2] = target: T1, P2Y14 (Mus musculus, UniProt Q9ESG6); conditions: EGFP(+) cell membranes, saturating concentration 10^−5 M unlabeled ligand
T1 sequence (Q9ESG6 1-338): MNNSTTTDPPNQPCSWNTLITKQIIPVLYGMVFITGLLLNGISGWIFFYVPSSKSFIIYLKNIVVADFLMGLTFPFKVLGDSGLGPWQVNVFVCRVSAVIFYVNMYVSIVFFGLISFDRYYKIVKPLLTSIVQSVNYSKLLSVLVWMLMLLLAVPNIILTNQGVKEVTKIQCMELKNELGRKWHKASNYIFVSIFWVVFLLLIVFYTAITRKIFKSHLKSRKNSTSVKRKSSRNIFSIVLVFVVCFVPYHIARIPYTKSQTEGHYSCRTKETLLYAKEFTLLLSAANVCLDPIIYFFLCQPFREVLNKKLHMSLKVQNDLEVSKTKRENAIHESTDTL
Method: Mice were anesthetized using pentobarbital sodium (50 mg/kg body, ip, Nembutal, Abbott Laboratories, Abbott Park, Ill.). The blood was flushed out of the organs by perfusing the animals with a phosphate-buffered saline (PBS) through the cardiac left ventricle at a constant flow rate of 17 ml/min. Kidneys were excised and sliced, and some kidneys were microdissected to separate the cortex from the medulla. Tissues were then minced immediately with scissors in RPMI 1640 medium (Invitrogen, Grand Island, N.Y.) containing 1.0 mg/ml collagenase type I (Invitrogen), 1.0 mg/ml collagenase type II (Sigma Aldrich) and 2 mg/ml hyaluronidase (Sigma Aldrich), and digested for 45 min at 37° C. A 40-μm-nylon mesh was used to remove undigested material following tissue digestion. Cells were then washed once with RPMI 1640 medium and once with a calcium-free PBS. EGFP-positive (EGFP(+)) and negative (EGFP(−)) cells were isolated immediately by FACS, based on their green fluorescence intensity, as described previously (36). […]
Confluent MDCK-C11 cells were scrapped in ice-cold PBS, pelleted by centrifugation (500 g, 10 min) and then resuspended in 1 ml ice-cold Tris-acetate 0.2 M buffer (pH 7.5) containing protease inhibitors (Complete Mini, Roche, Indianapolis, Ind.) using a 25G needle. […] Protein concentration was determined using a nanodrop 2000 (Thermo scientific). […]

P2Y14 [3] = target: T2, P2Y14 (Canis lupus familiaris, UniProt A0A8I3S656); assay: [3H]UDP-glucose dose-displacement binding to MDCK-C11 membranes; parameters: endogenous in cells; host or cells: MDCK-C11 cells (Madin-Darby Canine Kidney subclone C11), not transfected; species or system Canine; conditions: MDCK-C11 membranes 15 μg, [3H]UDP-glucose 3 nM, 3 hours 22° C., increasing concentrations (ATP up to 10 μM)
T2 sequence (A0A8I3S656 1-340): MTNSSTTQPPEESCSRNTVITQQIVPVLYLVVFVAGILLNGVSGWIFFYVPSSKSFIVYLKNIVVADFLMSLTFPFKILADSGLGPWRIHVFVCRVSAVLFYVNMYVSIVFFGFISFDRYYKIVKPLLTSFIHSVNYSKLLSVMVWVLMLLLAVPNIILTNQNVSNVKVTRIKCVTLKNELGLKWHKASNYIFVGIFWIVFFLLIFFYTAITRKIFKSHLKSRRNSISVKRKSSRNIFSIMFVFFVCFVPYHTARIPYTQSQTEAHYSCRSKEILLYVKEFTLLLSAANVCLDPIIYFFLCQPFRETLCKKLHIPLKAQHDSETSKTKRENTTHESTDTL
Method: Incubation was terminated by the addition of ice-cold 50 mM Tris/HCl pH 7.4, 1 mM EDTA, 5 mM MgCl2 and was followed immediately by filtration under vacuum through Gelman A/E glass filters (Pall life science, An Arbor, Mich.) pre-soaked in binding buffer. The filters were rinsed twice before the addition of 5 ml of scintillation fluid (OpticFluor, Groninge, The Netherlands). Receptor-bound radioactivity was measured using liquid scintillation analyzer Tricarb 2200 CA from Parckard. All assays were performed in triplicate. […] Incubations were stopped by the addition of ice-cold buffer and receptor-bound radioactivity was determined as described above. The equilibrium dissociation constant (Kd) and the capacity of binding in dose-displacement studies were calculated using a scatchard plot and are expressed as the mean±SD. Statistical analysis were performed using the unpaired Student t-test.

P2Y14 [4] = target: T2, P2Y14; conditions: MDCK-C11 cells, PPTN 10 μM pre-treatment 30 minutes, 100 μM UDP-glucose
P2Y14 [5] = target: T1, P2Y14; assay: ERK1/2 phosphorylation in FACS isolated EGFP(+) intercalated cells (immunoblot); assay type: cell-based; parameters: using total membranes separated from FACS isolated EGFP(+) cells and EGFP(−) cells; endogenous in cells; host or cells: EGFP(+) intercalated cells freshly isolated by FACS from kidneys of B1-EGFP transgenic mice; conditions: with PPTN
Method: Mice were anesthetized using pentobarbital sodium (50 mg/kg body, ip, Nembutal, Abbott Laboratories, Abbott Park, Ill.). The blood was flushed out of the organs by perfusing the animals with a phosphate-buffered saline (PBS) through the cardiac left ventricle at a constant flow rate of 17 ml/min. Kidneys were excised and sliced, and some kidneys were microdissected to separate the cortex from the medulla. Tissues were then minced immediately with scissors in RPMI 1640 medium (Invitrogen, Grand Island, N.Y.) containing 1.0 mg/ml collagenase type I (Invitrogen), 1.0 mg/ml collagenase type II (Sigma Aldrich) and 2 mg/ml hyaluronidase (Sigma Aldrich), and digested for 45 min at 37° C. A 40-μm-nylon mesh was used to remove undigested material following tissue digestion. Cells were then washed once with RPMI 1640 medium and once with a calcium-free PBS. EGFP-positive (EGFP(+)) and negative (EGFP(−)) cells were isolated immediately by FACS, based on their green fluorescence intensity, as described previously (36). Cell isolation was performed at the MGH flow cytometry core facility using a modified FACS Vantage cell sorter (BD Biosciences, San Jose, Calif.). FACS isolated samples were collected in PBS and used without delay for subsequent treatment and/or cell fractionation, protein and RNA isolation, or imaging. […]

[6] = PD98059 50 μM pretreatment 30 minutes

## COc1cccc(-c2cc(=O)c3ccccc3o2)c1N [PD98059]
[1]; [6]
  UDP-glucose induced up regulation of CCL-2 mRNA: abolished
  UDP-glucose induced up regulation of IL-8 mRNA: abolished

## Nc1ncnc2c1ncn2[C@@H]1O[C@H](COP(=O)(O)OP(=O)(O)OP(=O)(O)O)[C@@H](O)[C@H]1O [ATP]
P2Y14 [2]
  displacement of [3H]UDP-glucose binding: not with ATP
P2Y14 [3]
  inhibition of [3H]UDP-glucose binding by unlabeled ligand: no significant inhibitory effect

## O=C(O)c1cc(-c2ccc(C3CCNCC3)cc2)c2ccc(-c3ccc(C(F)(F)F)cc3)cc2c1 [PPTN, 4-[4-(piperidin-4-yl)phenyl]-7-[4-(trifluoromethyl)phenyl]-2-naphthoic acid]
[1]; PPTN pretreatment 30 minutes
  increase in CCl2 mRNA expression induced by UDP-glucose: abolished
  increase in IL8 mRNA expression induced by UDP-glucose: abolished
P2Y14 [4]
  UDP-glucose induced increase in ERK1/2 phosphorylation: abolished
P2Y14 [5]
  UDP-glucose dependent ERK phosphorylation in ICs isolated by FACS (FIG. 14): inhibits
